ChEMBL document CHEMBL5214883, “Comprehensive review for anticancer hybridized multitargeting HDAC inhibitors” (Eur J Med Chem, 2021)
Each block holds one compound with its values, some of them ahead of it.

How the values were obtained:
[1] = Cytotoxicity against human WM983B cells; format: functional, cell-based
[2] = molecular target: Histone deacetylase 2 (Homo sapiens, UniProt Q92769); assay: Inhibition of human HDAC2 incubated for 30 mins by SpectraMax M2 microplate reader analysis
[3] = molecular target: Tubulin; assay: Inhibition of tubulin polymerization (unknown origin) incubated for 15 mins in presence of GTP by fluorescence-based tubulin polymerization assay kit; format: protein-complex assay, Homo sapiens
[4] = molecular target: Epidermal growth factor receptor (Homo sapiens, UniProt P00533, T790M); assay: Inhibition of EGFR T790M (unknown origin) incubated for 40 mins in presence of ATP
[5] = molecular target: T1, Histone deacetylase 1 (Homo sapiens, UniProt Q13547); assay: Inhibition of HDAC1 in human HeLa cell nuclear extract using Bos-Lys(acetyl)-AMC as substrate preincubated for 5 mins followed by substrate addition incubated for 30 mins; format: cell-free
[6] = molecular target: T2, Epidermal growth factor receptor (Homo sapiens, UniProt P00533); assay: Inhibition of EGFR wildtype (unknown origin) incubated for 40 mins in presence of ATP
[7] = tested on: Epidermal growth factor receptor (Homo sapiens), P00533 [UNDEFINED MUTATION]; assay: Inhibition of EGFR T790M (unknown origin) at 1 uM incubated for 40 mins in presence of ATP relative to control
[8] = molecular target: Polyamine deacetylase HDAC10 (Homo sapiens, UniProt Q969S8); assay: Inhibition of HDAC10 (unknown origin)
[9] = Antiproliferative activity against breast cancer cell line (unknown origin)
[10] = molecular target: Cyclin-dependent kinase 4 (Homo sapiens, UniProt P11802); assay: Inhibition of Cdk4 (unknown origin)
[11] = molecular target: T3, Protein deacetylase HDAC6 (Homo sapiens, UniProt Q9UBN7); assay: Inhibition of HDAC6 (unknown origin)
T3 sequence (Q9UBN7 whole entry): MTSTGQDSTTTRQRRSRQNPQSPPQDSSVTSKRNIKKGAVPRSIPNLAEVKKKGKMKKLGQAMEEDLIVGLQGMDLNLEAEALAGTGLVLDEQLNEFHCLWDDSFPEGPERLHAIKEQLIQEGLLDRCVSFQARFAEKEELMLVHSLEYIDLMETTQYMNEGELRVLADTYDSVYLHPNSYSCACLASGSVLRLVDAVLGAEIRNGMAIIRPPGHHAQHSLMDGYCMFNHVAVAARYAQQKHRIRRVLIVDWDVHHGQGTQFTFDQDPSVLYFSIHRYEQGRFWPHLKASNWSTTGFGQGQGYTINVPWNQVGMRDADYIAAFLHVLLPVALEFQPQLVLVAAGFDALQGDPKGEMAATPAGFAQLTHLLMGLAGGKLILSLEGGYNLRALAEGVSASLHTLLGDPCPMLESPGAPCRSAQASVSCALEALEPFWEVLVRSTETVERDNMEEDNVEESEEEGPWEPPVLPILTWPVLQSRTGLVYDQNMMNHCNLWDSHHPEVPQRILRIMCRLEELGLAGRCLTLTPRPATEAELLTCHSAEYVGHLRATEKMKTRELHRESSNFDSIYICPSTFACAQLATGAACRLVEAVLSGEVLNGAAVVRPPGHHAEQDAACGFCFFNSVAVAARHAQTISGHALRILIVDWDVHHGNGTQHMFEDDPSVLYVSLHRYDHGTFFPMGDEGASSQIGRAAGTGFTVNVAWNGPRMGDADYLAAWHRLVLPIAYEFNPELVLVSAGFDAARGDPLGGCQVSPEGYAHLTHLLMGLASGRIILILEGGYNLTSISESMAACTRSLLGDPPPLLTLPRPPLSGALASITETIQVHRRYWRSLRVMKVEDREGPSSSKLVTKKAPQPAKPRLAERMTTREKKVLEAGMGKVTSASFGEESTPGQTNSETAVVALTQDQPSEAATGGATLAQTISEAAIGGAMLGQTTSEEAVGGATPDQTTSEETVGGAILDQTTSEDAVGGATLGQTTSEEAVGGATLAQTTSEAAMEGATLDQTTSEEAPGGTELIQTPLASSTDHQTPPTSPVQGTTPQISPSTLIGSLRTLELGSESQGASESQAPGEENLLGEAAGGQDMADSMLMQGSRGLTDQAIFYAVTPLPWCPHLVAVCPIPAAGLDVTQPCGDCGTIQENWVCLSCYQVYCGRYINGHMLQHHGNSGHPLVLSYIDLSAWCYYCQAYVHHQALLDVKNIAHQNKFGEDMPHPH

[12] = molecular target: Histone deacetylase 3 (Homo sapiens, UniProt O15379); assay: Inhibition of HDAC3 (unknown origin)
[13] = molecular target: T1, Histone deacetylase 1; assay: Inhibition of HDAC1 (unknown origin)
[14] = Antiproliferative activity against non-small cell lung cancer cell line (unknown origin)
[15] = tested on: MCF7; assay: Cytotoxicity against human MCF7 cells; format: functional, cell-based
[16] = Cytotoxicity against African green monkey Vero cells; conditions: African green monkey (Chlorocebus sabaeus)
[17] = tested on: MDA-MB-231; assay: Cytotoxicity against human MDA-MB-231 cells; format: functional, cell-based
[18] = tested on: RWPE-1; assay: Cytotoxicity against human RWPE-1 cells; format: functional, cell-based
[19] = tested on: PC-3; assay: Cytotoxicity against human PC-3 cells; format: functional, cell-based
[20] = Inhibition of PDGFR (unknown origin); design: species or system Homo sapiens
[21] = molecular target: T2, Epidermal growth factor receptor; assay: Inhibition of EGFR (unknown origin)
[22] = molecular target: Receptor tyrosine-protein kinase erbB-2 (Homo sapiens, UniProt P04626); assay: Inhibition of HER2 (unknown origin)
[23] = tested on: CAPAN-1; assay: Antitumor activity against human CAPAN-1 cells xenografted in mouse assessed tumor growth inhibition at 20 mg/kg, ip, bid relative to control; format: functional; conditions: read-out: TGI
[24] = molecular target: Histone deacetylase 8 (Homo sapiens, UniProt Q9BY41); assay: Inhibition of HDAC8 (unknown origin)
[25] = molecular target: Histone deacetylase 11 (Homo sapiens, UniProt Q96DB2); assay: Inhibition of HDAC11 (unknown origin)
[26] = molecular target: T1, Histone deacetylase 1; assay: Inhibition of HDAC1 (unknown origin) relative to control; conditions: concentration not given here
[27] = tested on: HaCaT; assay: Cytotoxicity against human HaCat cells by trypan blue staining method; format: functional; conditions: read-out: LC50 (the source's name)
[28] = tested on: Jurkat; assay: Cytotoxicity against human Jurkat cells by trypan blue staining method; format: functional; conditions: read-out: LC50 (the source's name)
[29] = tested on: MCF7; assay: Cytotoxicity against human MCF7 cells by trypan blue staining method; format: functional, cell-based
[30] = tested on: HEK-293T; assay: Cytotoxicity against human 293T cells by trypan blue staining method; format: functional; conditions: read-out: LC50 (the source's name)
[31] = tested on: L1210; assay: Cytotoxicity against mouse L1210 cells by trypan blue staining method; format: functional; conditions: read-out: LC50 (the source's name)

T1 sequence (Q13547 whole entry): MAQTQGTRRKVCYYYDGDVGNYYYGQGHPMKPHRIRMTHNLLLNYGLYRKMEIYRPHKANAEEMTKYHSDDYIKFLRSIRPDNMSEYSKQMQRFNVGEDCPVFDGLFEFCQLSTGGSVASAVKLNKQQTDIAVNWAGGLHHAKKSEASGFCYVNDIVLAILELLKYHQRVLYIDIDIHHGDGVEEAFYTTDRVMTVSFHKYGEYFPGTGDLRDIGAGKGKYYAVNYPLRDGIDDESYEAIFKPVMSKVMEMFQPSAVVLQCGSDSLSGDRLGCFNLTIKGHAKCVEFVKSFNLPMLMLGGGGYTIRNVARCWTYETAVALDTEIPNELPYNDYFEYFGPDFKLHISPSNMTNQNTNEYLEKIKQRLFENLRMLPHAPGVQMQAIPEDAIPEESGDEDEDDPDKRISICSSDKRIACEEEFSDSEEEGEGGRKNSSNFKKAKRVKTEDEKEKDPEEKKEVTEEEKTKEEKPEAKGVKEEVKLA
Chain of Histone deacetylase 3 (O15379 whole entry): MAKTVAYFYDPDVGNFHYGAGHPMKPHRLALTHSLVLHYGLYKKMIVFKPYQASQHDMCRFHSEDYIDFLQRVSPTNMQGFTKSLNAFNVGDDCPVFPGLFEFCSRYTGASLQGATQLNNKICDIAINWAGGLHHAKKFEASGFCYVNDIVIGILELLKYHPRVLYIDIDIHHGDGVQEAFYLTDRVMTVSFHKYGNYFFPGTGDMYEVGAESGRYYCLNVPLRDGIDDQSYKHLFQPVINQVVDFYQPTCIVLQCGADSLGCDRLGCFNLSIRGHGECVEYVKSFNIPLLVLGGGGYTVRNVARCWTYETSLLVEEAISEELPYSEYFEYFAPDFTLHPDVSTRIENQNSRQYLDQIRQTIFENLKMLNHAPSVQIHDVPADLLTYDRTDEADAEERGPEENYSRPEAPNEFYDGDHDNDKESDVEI
T2 sequence (P00533 whole entry): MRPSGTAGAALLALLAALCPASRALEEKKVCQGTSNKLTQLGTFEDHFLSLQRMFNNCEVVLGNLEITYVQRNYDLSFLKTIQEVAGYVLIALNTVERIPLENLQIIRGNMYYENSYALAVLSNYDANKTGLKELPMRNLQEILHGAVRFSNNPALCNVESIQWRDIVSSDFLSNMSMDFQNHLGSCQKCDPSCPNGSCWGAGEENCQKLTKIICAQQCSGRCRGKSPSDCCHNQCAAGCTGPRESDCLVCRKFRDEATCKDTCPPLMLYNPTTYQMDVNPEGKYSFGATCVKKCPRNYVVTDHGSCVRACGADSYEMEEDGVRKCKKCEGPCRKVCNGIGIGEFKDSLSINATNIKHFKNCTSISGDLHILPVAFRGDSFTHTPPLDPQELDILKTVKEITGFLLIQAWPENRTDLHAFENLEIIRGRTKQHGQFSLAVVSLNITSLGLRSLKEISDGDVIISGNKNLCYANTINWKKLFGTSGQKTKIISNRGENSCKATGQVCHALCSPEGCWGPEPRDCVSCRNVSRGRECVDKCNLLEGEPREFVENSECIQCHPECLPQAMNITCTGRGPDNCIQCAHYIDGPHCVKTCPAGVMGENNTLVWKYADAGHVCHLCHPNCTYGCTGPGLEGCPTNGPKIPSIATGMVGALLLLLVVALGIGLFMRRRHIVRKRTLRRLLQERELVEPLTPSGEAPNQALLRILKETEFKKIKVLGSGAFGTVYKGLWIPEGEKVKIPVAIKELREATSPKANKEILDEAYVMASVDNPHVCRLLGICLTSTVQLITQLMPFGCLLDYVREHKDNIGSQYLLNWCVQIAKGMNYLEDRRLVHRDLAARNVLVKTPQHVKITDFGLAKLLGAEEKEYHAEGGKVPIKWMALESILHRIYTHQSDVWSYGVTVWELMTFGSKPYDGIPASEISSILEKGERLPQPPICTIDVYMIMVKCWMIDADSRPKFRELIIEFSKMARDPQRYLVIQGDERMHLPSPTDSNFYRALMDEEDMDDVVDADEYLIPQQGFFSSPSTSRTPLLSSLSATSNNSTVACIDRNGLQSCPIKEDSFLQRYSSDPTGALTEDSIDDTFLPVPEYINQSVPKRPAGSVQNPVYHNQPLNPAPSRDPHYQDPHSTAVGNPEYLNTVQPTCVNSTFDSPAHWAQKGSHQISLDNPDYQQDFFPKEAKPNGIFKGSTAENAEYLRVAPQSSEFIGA
Chain of Epidermal growth factor receptor (Homo sapiens, UniProt P00533, T790M) (P00533 25-1210 T790M limits assumed): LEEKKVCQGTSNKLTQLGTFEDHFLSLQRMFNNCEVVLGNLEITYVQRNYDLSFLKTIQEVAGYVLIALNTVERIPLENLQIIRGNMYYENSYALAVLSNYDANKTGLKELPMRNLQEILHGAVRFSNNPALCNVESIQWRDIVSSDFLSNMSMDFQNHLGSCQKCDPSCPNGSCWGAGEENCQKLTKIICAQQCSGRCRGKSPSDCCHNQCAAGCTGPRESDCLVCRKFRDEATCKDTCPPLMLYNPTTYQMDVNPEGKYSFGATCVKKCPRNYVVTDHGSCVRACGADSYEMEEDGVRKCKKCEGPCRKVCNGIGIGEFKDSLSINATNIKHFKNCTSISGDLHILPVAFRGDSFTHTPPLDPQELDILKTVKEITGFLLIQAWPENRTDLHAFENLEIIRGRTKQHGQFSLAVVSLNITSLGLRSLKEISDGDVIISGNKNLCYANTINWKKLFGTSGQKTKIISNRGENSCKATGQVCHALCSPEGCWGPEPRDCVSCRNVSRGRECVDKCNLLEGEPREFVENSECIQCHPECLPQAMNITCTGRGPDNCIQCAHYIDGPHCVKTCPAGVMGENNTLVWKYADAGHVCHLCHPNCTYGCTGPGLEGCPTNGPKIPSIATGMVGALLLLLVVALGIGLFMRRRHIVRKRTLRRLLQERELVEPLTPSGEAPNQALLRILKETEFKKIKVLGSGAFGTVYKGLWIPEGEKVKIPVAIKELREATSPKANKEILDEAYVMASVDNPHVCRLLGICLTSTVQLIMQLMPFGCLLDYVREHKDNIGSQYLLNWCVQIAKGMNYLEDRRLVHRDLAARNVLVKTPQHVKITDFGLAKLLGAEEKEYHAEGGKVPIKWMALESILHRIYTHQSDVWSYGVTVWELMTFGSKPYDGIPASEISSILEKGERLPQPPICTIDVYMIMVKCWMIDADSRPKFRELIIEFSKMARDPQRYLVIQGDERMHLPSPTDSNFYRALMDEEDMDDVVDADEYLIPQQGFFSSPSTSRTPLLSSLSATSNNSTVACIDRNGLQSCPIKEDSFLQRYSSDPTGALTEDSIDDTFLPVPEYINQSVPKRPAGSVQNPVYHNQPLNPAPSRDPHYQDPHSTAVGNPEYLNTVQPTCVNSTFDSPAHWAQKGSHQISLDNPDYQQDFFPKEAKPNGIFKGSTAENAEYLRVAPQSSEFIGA
Chain of Histone deacetylase 11 (Q96DB2 whole entry): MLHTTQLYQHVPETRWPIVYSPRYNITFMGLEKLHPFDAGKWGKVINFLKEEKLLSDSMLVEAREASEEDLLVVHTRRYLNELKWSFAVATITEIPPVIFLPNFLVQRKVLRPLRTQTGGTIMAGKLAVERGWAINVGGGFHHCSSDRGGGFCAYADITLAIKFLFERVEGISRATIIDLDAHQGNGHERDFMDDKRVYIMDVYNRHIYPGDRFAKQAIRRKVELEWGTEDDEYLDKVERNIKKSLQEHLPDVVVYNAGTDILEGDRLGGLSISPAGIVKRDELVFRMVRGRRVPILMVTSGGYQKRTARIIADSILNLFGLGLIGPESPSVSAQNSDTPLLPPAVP
Chain of Receptor tyrosine-protein kinase erbB-2 (P04626 whole entry): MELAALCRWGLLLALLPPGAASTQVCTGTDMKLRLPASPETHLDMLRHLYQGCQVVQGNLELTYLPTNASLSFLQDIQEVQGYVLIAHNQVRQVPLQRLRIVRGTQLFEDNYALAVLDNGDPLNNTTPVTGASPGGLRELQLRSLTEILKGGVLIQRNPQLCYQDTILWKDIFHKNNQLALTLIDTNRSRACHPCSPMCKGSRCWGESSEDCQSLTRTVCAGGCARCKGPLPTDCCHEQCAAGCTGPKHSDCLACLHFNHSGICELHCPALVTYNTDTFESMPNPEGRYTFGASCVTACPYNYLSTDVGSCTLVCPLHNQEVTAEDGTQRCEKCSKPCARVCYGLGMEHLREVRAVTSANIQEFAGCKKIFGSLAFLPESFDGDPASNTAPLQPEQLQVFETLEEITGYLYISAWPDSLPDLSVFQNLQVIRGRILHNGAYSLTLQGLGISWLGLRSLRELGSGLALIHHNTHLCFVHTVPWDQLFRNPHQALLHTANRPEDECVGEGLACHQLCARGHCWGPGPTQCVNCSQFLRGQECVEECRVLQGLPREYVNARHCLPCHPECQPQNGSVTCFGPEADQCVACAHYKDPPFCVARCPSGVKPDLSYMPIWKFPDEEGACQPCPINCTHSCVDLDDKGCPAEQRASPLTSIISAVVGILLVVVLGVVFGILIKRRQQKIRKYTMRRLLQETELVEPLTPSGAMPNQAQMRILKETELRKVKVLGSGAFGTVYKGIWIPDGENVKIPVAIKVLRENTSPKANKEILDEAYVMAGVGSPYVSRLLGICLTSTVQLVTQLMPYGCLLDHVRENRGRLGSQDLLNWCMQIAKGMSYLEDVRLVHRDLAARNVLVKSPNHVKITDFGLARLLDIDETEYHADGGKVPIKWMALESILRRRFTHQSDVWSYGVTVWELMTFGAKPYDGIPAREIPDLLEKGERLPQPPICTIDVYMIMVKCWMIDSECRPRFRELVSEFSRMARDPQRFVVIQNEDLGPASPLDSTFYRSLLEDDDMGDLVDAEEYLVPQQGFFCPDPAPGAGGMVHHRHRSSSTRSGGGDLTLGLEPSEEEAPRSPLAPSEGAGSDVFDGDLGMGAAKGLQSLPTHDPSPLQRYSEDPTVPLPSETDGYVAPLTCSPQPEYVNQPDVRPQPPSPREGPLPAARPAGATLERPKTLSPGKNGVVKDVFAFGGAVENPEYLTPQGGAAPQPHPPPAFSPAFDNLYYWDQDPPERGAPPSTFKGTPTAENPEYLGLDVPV

SMILES: Nc1ccccc1NC(=O)c1ccc(CCCC(=O)Nc2ccc(C3CC3N)cc2)cc1 (stereo not given)
IC50 [1]: 200 nM

SMILES: C[C@H]1COc2c(N3CCN(C)CC3)c(F)cc3c(=O)c(C(=O)NCc4cn(CCCCCC(=O)NO)nn4)cn1c23
IC50 [2]: 850 nM
IC50 [3]: 2020 nM

SMILES: Cc1nc2c(F)cc(-c3nc(Nc4ccc(CNC(=O)CC(=O)NO)cc4)ncc3F)cc2n1C(C)C
IC50 [8]: 73 nM
IC50 [9]: 18.3 nM
IC50 [10]: 1.2 nM
IC50 [11]: 5.9 nM
IC50 [12]: 56 nM
IC50 [13]: 26 nM
IC50 [14]: 18.3 nM

SMILES: CC1(C)C(=O)N(c2ccc(C#N)c(C(F)(F)F)c2)C(=O)N1CCCCCCc1cn(CCCCCCC(=O)NO)nn1
IC50 [15]: 14600 nM
IC50 [16]: > 20000 nM
IC50 [17]: > 20000 nM
IC50 [18]: 12100 nM
IC50 [19]: 15700 nM

SMILES: Cc1sc2c(c1C)C(c1ccc(Cl)cc1)=N[C@@H](CC(=O)Nc1ccc(C(=O)NO)cc1)c1nnc(C)n1-2
inhibition in vivo at 20 mg/kg [23]: 87.7%

SMILES: O=C(CCCCCOc1no[n+]([O-])c1S(=O)(=O)c1ccccc1)NO
IC50 [11]: 7400 nM
IC50 [12]: 532 nM
IC50 [24]: 343 nM
IC50 [25]: 608 nM

SMILES: O=C(CCn1cc(CCn2nnc3c(Br)c(Br)c(Br)c(Br)c32)nn1)NO
inhibition [26]: 90%
CC50 [27]: 13500 nM
CC50 [28]: 13500 nM
IC50 [29]: 17300 nM
CC50 [30]: 13500 nM
CC50 [31]: 13500 nM

Further lines, results first:

IC50 [4]: 1200 nM
IC50 [5]: 105 nM
IC50 [6]: 3200 nM
inhibition [7]: 44%
SMILES: Cn1cc(-c2ccnc(Nc3ccc(NC(=O)CCCCCCC(=O)NO)cc3)n2)c2ccccc21

IC50 [11]: ≥ 32000 nM
IC50 [20]: 2700 nM
SMILES: Cc1ccc(NCc2ccc(C(=O)Nc3ccccc3N)cc2)cc1Nc1nccc(-c2cccnc2)n1

IC50 [21]: 78 nM
IC50 [22]: 66 nM
IC50 [13]: 41 nM
SMILES: C#Cc1cccc(Nc2ncnc3ccc(S(=O)(=O)n4ccc(/C=C/C(=O)Nc5ccccc5N)c4)cc23)c1
